Experimental data from patent US20030134859A1 (SANKYO COMPANY, LIMITED, priority 2000, published 2003).

Assays:
leptin production = assay: Enhancing activity for leptin production in adipocytes (ELISA); format: cell-based, rat; settings: Rattus norvegicus, Adipocyte, 24 h, leptin concentration as % of control group, read-out: Facilitating activity to produce leptin; for activity at 0.1 µM: 100 nm; for activity at 0.01 µM: 10 nm
Experimental: Hanks solution was used for collection of adipose tissue. The Hanks solution was prepared by filtration of a mixed solution (pH: 7.5) of 120 mM NaCl, 4.8 mM KCl, 0.74 mM MgSO4, 0.30 mM Na2HPO4, 0.40 mM KH2PO4, 20 mM HEPES, 0.05% (w/v) glucose, 2% (w/v) BSA (Sigma-Aldrich Japan K. K., Cat. No. A7888), 0.95 mM CaCl2, 4.17 mM NaHCO3 and 1% (v/v) penicillin-streptomycin liquid (GIBCO BRL, Cat. No. 15140-122). The adipocytes were cultured in Dulbecco's modified Eagle's medium (GIBCO BRL, Cat. No. 11995-040) mixed with DMEM/F-12 (GIBCO BRL, Cat. No. 11320-033) at a ratio of 1:1, and added 0.2% (v/v) Hanks solution, 0.2 μg/L sodium selenite (GIBCO BRL, Cat. No. 13012-018), 0.002% (v/v) ethanolamine, 25 mM HEPES and 1% (v/v) penicillin-streptomycin liquid (GIBCO BRL, Cat. No. 15140-122). As many as possible of the other reagents used were special grade. In this experiment, the cells were cultured in a CO2 incubator (37° C., 95% humidity, 5% CO2).
Male Wistar Imamichi rats of 6 weeks old were sacrificed by bleeding following decapitation, and adipose tissue was removed from the epididymis and sectioned after the vessels were removed in warmed Hanks solution at 37° C. and were weighed. One (1) mL of Hanks solution containing 10 mg collagenase (Wako Pure Chemical Industries, Ltd., 034-10533) was added to the adipose tissue prepared. The solution was transferred into a tube having a volume of 50 mL, and the cells were evenly dispersed by incubation under gentle shaking at 37° C., 90 rpm, for 50 min. Then 20 mL of Hanks solution were added and filtrated through Nylon-mesh with a mesh diameter of 200 μm for removal of undigested tissue pieces. The floating adipocytes were separated from sediments and substances located in the lower layer by centrifugation at 1,000 rpm for 1 min at room temperature. The sediment and 22 mL of the low layer were pulled out with a probe, and the floating adipocytes were recovered. This procedure was repeated twice with Hanks solution and for 4 times with the culture medium. After these procedures the adipocytes were suspended in the culture medium at a volume of 60 mL per 1 g of the adipose tissue weighed previously. 100 μL of the suspended solution were plated in each well of a 96-well microplate (ASAHI TECHNO GLASS Corp.) In the group treated with the test compound, 1 μL/well of DMSO solution containing the dissolved the test compound at concentrations of 200 μM, 20 μM, 2 μM and 0.2 μM (final concentrations of the test compound: 1 μM, 100 nM, 10 nM and 1 nM, respectively) was plated in each of the well. In the control group, 1 μL/well of DMSO (final concentration: 0.1% (v/v)) was plated in each well. The plate was placed stationary in a CO2 incubator for 1 hr or longer, and the contents in the solution were equilibrated at 37° C. After they were equilibrated, the solution in each well was stirred with a magnetic stirrer in a water bath and the suspended solution maintained at 37° C. was plated into each well of the plate at 100 μL/well. After incubation of the cells for 24 hr, the suspended solution of cells was filtrated through a filter for the microplate, MultiScreen (MILLOPORE, MDV-N65). The concentration of leptin in the filtrated solution was determined with ELISA methods by using a Rat Leptin Determination Kit-IBL (Immuno-Biological Laboratories Co., Ltd., Cat. No. 17195). The facilitating activity of the compound to produce leptin was calculated from the following equation based on the concentration of leptin determined.
Facilitating Activity of the Compound to Produce Leptin (%)=(A/B)×100
A: Concentration of Leptin in the Treated Group with the Test Compound.
B: Concentration of Leptin in the Control Group.

Rat white adipocytes = assay: Inhibition of the differentiation of adipocytes (Oil Red O); format: cell-based; settings: Rattus norvegicus, Adipocyte, 120 h, 100 nM test compound; 5 days; Oil Red O ABS550; control = 100%, blank = 0%; Table 3; read-out: Rate of Differentiation (%)
Experimental: Rat white adipocytes contained in the white adipocyte culture kit purchased from HOKUDO were used. As the medium for proliferation and for differentiation-inducing, the medium contained in the white adipocyte culture kit purchased from HOKUDO was used. The cells in the present experiment were cultured in a CO2 incubator (37° C., 95% R.H., 5% CO2).
Immediately after arrival of the purchased cells, all medium for transportation was discarded and replaced with 5 ml of proliferation medium (/25 cm^2-flask) and the cells were cultured for one day. Then, a cell suspension was prepared with proliferation medium so as to be 83,000 cells/mL, and the cell suspension was plated into a type I 96-well collagen-coated microplate (SUMITOMO BAKELITE CO., ltd.) so as to be 5,000 cells/well (60 μL/well).
On the next day, all the proliferation medium was discarded and replaced with 147 μL/well of differentiation-inducing medium. Further, 1) in the group treated with the test compound, 3 μL/well of the solution, in which a test compound (100 μM) was dissolved in DMSO solution and diluted with differentiation-inducing medium by 20 times (final concentration of the test compound: 100 nM, final concentration of DMSO solution: 0.1% (v/v)), were added to the well where the cells were plated. 2) In the control group, 3 μL/well of DMSO solution that was diluted with differentiation-inducing medium by 20 times (final concentration of DMSO: 0.1% (v/v)) were added to the well where the cells were plated. Further, 3) in the blank group, 3 μL/well of DMSO solution that was diluted with differentiation-inducing medium by 20 times (final concentration: 0.1% (v/v)), was added to the blank well.
After culturing for 5 days, all differentiation-inducing medium was discarded and replaced with 60 μL of 10% (v/v) formaldehyde solution (for fixation) in each well and the cells were kept stationary for 20 min at room temperature. After this, the fixative solution was discarded and replaced with 60 μL of 0.2% (v/v) Triton X (Sigma-Aldrich Japan K. K.) solution in each well and kept stationary for 5 min at room temperature. Then all Triton X solution was discarded and replaced with 60 μL of 60% (v/v) isopropanol solution containing dissolved Oil Red O (Sigma-Aldrich Japan K. K.) so as to be 0.3%, which was adipose tissue staining solution, and the well was left stationary for 10 min at room temperature. After the adipose tissue staining solution was discarded, the well was washed twice with 60 JIL of 60% isopropanol solution. Then, 100 μL of the DMSO solution were added to each well and stirred for 5 min at room temperature, The absorbance was measured at 550 nm (ABS550) with a multi-plate reader (LabSystems), and the stained amount with Oil Red O was determined. The measured level at ABS550 in the control group was defined as 100%, while the level at ABS550 in the blank group was defined as 0%. The differentiation rate (%) of the adipocytes treated with the test compound was calculated.

CCCCCCN(CCCCC)c1ccc(-c2ccc(NC(=O)c3cc([N+](=O)[O-])ccc3Cl)cc2)cc1 [Example 200, N-[4-[4-(N-Hexyl-N-pentylamino)phenyl]phenyl]-(2-chloro-5-nitrophenyl)carboxamide] showed an activity at 1 µM (leptin production) of 117% and an activity at 0.1 µM (Rat white adipocytes) of 44.1%.
In the case of CCCCCCN(CCCCCC)c1ccc(-c2ccc(NC(=O)c3cc([N+](=O)[O-])ccc3Cl)cc2)cc1 [Example 201, N-[4-[4-(N,N-Dihexylamino)phenyl]phenyl]-(2-chloro-5-nitrophenyl)carboxamide], the activity at 1 µM (leptin production) was 112%, the activity at 0.1 µM (leptin production) was 114% and the activity at 0.1 µM (Rat white adipocytes) was 46.9%.
Work on CCCCCNc1ccc(-c2ccc(NC(=O)c3cc([N+](=O)[O-])ccc3Cl)cc2)cc1 [Example 202, N-[4-[4-(N-Pentylamino)phenyl]phenyl]-(2-chloro-5-nitrophenyl)carboxamide] yielded an activity at 1 µM (leptin production) of 137%, an activity at 0.01 µM (leptin production) of 136% and an activity at 0.1 µM (leptin production) of 133%. For the same compound, the activity at 0.1 µM (Rat white adipocytes) was 35.4%.
Work on CCCCCCCCN(C)c1ccc(-c2ccc(NC(=O)c3cc([N+](=O)[O-])ccc3Cl)cc2)cc1 [Example 226, N-[4-[4-(N-Methyl-N-octylamino)phenyl]phenyl]-(2-chloro-5-nitrophenyl)carboxamide] yielded an activity at 0.01 µM (leptin production) of 111% and an activity at 0.1 µM (Rat white adipocytes) of 42%.
CNC(=S)Nc1ccc(-c2ccc(NC(=O)c3cc([N+](=O)[O-])ccc3Cl)cc2)cc1 [Example 236, N-[4-[4-(Methylaminothiocarbonylamino)phenyl]phenyl]-(2-chloro-5-nitrophenyl)carboxamide] gave an activity at 0.01 µM (leptin production) of 112% and an activity at 0.1 µM (Rat white adipocytes) of 47.1%.
With O=C(Nc1ccccc1)Nc1ccc(-c2ccc(NC(=O)c3cc([N+](=O)[O-])ccc3Cl)cc2)cc1 [Example 242, N-[4-[4-(Phenylaminocarbonylamino)phenyl]phenyl]-(2-chloro-5-nitrophenyl)carboxamide] the activity at 0.1 µM (leptin production) was 111% and the activity at 0.1 µM (Rat white adipocytes) was 57.6%.
O=C(Nc1ccc(-c2ccc(NC(=O)c3cc([N+](=O)[O-])ccc3Cl)cc2)cc1)Nc1ccc(F)cc1F [Example 249, N-[4-[4-[(2,4-Difluorophenyl)aminocarbonylamino]phenyl]phenyl]-(2-chloro-5-nitrophenyl)carboxamide] gave an activity at 1 µM (leptin production) of 111%, an activity at 0.01 µM (leptin production) of 114% and an activity at 0.1 µM (leptin production) of 113%. It also gave an activity at 0.1 µM (Rat white adipocytes) of 61.9%.
For NC(=O)NCCc1ccc(NC(=O)c2cc([N+](=O)[O-])ccc2Cl)cc1 [Example 270, N-[4-(2-Aminocarbonylaminoethyl)phenyl]-(2-chloro-5-nitrophenyl)carboxamide], the activity at 0.01 µM (leptin production) was 118% and the activity at 0.1 µM (Rat white adipocytes) was 45.9%.
